This is an account of results in patent EP3339444A1, “METHOD FOR OBTAINING A GL[…] AN INCREASED PERCENTAGE OF AF[…]” (Mabxience Research, S.L., priority 2016, dated 2018).

In test [1] the test system is CHO cell line producing adalimumab. Briefly: Glycosylation profile (N-linked glycans released, labeled, chromatography) with arginine in culture. Type of test: cell-based, Chinese Hamster. The procedure: (§1) A transduced CHO cell line was used with three different culture media (Media 1, 2 and 3) in a fed-batch process with 5 different feeds (Feed 1,2,3,4 and 5) and at two culture scales, AMBR system (15 mL culture) and 1 L scale Bioreactors. Feeding strategy was based on maintaining glucose concentration between 3-4 g/L through the addition of different amount of feeding depending on glucose concentration measurement in culture media.
(§2) Process parameters & Conditions AMBR: T: 36.5 °C; Stirrer: 900 rpm; DO: 20%; pH:6.8-7.20; initial density: 0.5x10^6 cells/mL. Process parameters & Conditions 1 L: T: 36.5 °C; Stirrer: 200 rpm/240 rpm (day 7); DO: 20%; pH: 6.8-7.20; initial density: 0.5x10^6 cells/mL.
N-linked glycans were released from IgG samples by overnight incubation with N-glycosidase. The released glycans were labeled with a specific fluorophore. The labeled glycans were bound and separate by a chromatography. N-linked glycan structures were assigned to peaks based on comparison to reference structures. The amount of each structure is expressed as the percentage of total peak area. G0, G1, and G2 refer to complex, neutral, biantennary structures with 0, 1, or 2 terminal galactose residues, while G0F, G1 F, are G2F, are the corresponding core fucosylated structures.
Afucosylation: [GO-GlcNac + G0 + G1 + G2] / [GO-GlcNac + G0 + G0F + G1 + G1 F + G2 + G2F]

For test [2] the test system is unchanged. Kind of test: Viable cell density (VCD) and viability in fed-batch culture with arginine. Type of test: cell-based, Chinese Hamster. The procedure:
The cells were cultured in AMBR vessels in the cell culture media described above. The vessels were maintained at 36.5 °C, pH 7±0.2, 20% of DO and at 900 rpm of stirrer. They were seeded at 0.5 x 10^6 cells per ml in a volume of 11 mL. On days 0, 3, and 5, at least 2% of initial culture volume of feed medium and 0.2% of initial culture volume of cystine/tyrosine were added. Day 0 is the day in which the cultures were started, day 1 is the first day thereafter, day 2 is the second day thereafter, etc. Protein titer was determined on days 10, 12, 14 and 16.
The cells were cultured in 1 L scale bioreactor in the above described cell culture media. The cultures were maintained at 36.5 °C, pH 7±0.2, 20% of oxygen dissolved (DO) and at 200 rpm of stirrer. They were seeded at 0.5 x 10^6 cells per ml in a volume of 600mL. On days 0, 3, and 5, at least 2% of initial culture volume of feed medium and 0.2% of initial culture volume of cystine/tyrosine were added.
as §1, §2

The mark [3] stands for this setting: Media_1 Feed_2, 2 and 4 g/L arginine, AMBR.

Structures are written as SMILES.

`N=C(N)NCCC[C@H](N)C(=O)O` [Arg, arginine]: the “increment in G0 forms” value in test [1] (Media_2 Feed_1, 4 g/L arginine, day 16, 1 L bioreactor) is “higher than 50%”. Besides, the “increment in G1 forms” value in test [1] (Media_3 Feed_3, 4 g/L arginine, day 14, AMBR) is given as “higher than 50%”; in test [1] (Media_3 Feed_4, 4 g/L arginine, day 16, AMBR) it was “higher than 50%”. Further, the “reduction of VCD (maximum)” value in test [2] (setting [3]) is listed as “about 2 million cells”. Moreover, the viability result in test [2] (setting [3]) was “do nott affect viability”. The “cell growth and viability” value in test [2] (Media_1 Feed_2, 8 g/L arginine, AMBR) is given as “important reduction on cell growth affecting viability”. For the same compound, the maximum cell density result in test [2] (Media_2 Feed_1, 0-4 g/L arginine, AMBR) is “does not reduce the maximum cell density reached”; in test [2] (Media_2 Feed_1, 4 g/L arginine, 1 L bioreactor), “a delay and a decrease in the obtained maximum cell density”. In addition, the “maximum VCD” value in test [2] (Media_2 Feed_2, 2 g/L arginine, AMBR) is “does not affect maximum VCD”. Moreover, the cell growth result in test [2] (Media_2 Feed_2, 8 g/L arginine, AMBR) is “important reduction on cell growth”; in test [2] (Media_3 Feed_1, 2 to 4 g/L arginine, AMBR), “reduces cell growth”. The cell density result in test [2] (Media_3 Feed_3, 4 g/L arginine in combination with ferric citrate, AMBR) is listed as “does not have a negative effect in cell density”; in test [2] (Media_3 Feed_4, 4 g/L arginine in combination with 1 mM 3-methyl butyrate, AMBR), “does not have a negative effect in cell density”.
